Data taken from patent US20210251963A1, “UREA DERIVATIVES FOR USE IN THE TREATMENT OF SUBJECTS WITH ELEVATED EXPRESSION AND/OR ACTIVITY OF SRPK1” (Scandion Oncology A/S, priority 2018, published 2021).

How the values were obtained:
Assay in all cases: Premier Screen kinase activity screening (33P ATP filter binding)
Assay type in all cases: biochemical
Settings in all cases: 10 μM SCO-101, mean of assay duplicates, read-out: Kinase activity (percentage of DMSO control)
WNK1 = molecular target: T1, WNK1 (Homo sapiens, UniProt Q9H4A3)
T1 construct: purchased MRC Dundee, Premier Screen (contract screening service)
From the text: (§1) The kinase activity screening was done at MRC in Dundee. The screen was a so-called “Premier Screen” with 140 kinases. More specific information can be found here: http://www.kinase-screen.mrc.ac.uk/services/premier-screen
(§2) The method is based on a radioactive filter binding assay using 33P ATP (Hastie, et al 2006. Nat Protoc. 2006; 1(2):968-71; Bain, et al 2007. Biochem J. 2007 Dec. 15; 408(3):297-315). This method is sensitive, accurate and provides a direct measure of kinase enzyme activity. A concentration of 10 μM SCO-101 was used.
(§3) In the table below, the data is portrayed as the mean percentage activity of assay duplicates and a standard deviation. These percentage activities were calculated in comparison to DMSO controls. 10 μM SCO-101 reduced the activity of SRPK1 to 6% of the DMSO control.

EPH-B1 = molecular target: T2, EPH-B1 (Homo sapiens, UniProt P54762)
T2 construct: purchased MRC in Dundee (Premier Screen service)
From the text: as §1, §2, §3

TIE2 = molecular target: T3, TIE2 (Homo sapiens, UniProt Q02763)
T3 construct: MRC Dundee (screening service)
From the text: as §1, §2, §3

VEG-FR = molecular target: T4, VEG-FR (Homo sapiens, UniProt P17948)
T4 construct: purchased MRC in Dundee (Premier Screen service)
From the text: as §1, §2, §3

TGFBR1 = molecular target: T5, TGFBR1 (Homo sapiens, UniProt P36897)
T5 construct: purchased MRC Dundee, Premier Screen (contract screening service)
From the text: as §1, §2, §3

RSK2 = molecular target: T6, RSK2 (Homo sapiens, UniProt P51812)
T6 construct: purchased MRC in Dundee (Premier Screen service)
From the text: as §1, §2, §3

NEK6 = molecular target: T7, NEK6 (Homo sapiens, UniProt Q9HC98)
T7 construct: MRC in Dundee (screening service)
From the text: as §1, §2, §3

IRAK4 = IRAK4 (Homo sapiens, UniProt Q9NWZ3)
From the text: as §1, §2, §3

ERK8 = molecular target: T8, ERK8 (Homo sapiens, UniProt Q8TD08)
T8 construct: MRC in Dundee (screening service)
From the text: as §1, §2, §3

MNK2 = molecular target: T9, MNK2 (Homo sapiens, UniProt Q9HBH9)
T9 construct: purchased MRC Dundee, Premier Screen (contract screening service)
From the text: as §1, §2, §3

JNK3 = molecular target: T10, JNK3 (Homo sapiens, UniProt P53779)
T10 construct: purchased MRC Dundee, Premier Screen (contract screening service)
From the text: as §1, §2, §3

GCK = molecular target: T11, GCK (Homo sapiens, UniProt Q12851)
T11 construct: MRC in Dundee (screening service)
From the text: as §1, §2, §3

MEKK1 = molecular target: T12, MEKK1 (Homo sapiens, UniProt Q13233)
T12 construct: purchased MRC Dundee, Premier Screen (contract screening service)
From the text: as §1, §2, §3

MPSK1 = MPSK1 (Homo sapiens, UniProt O75716)
From the text: as §1, §2, §3

CSK = molecular target: T13, CSK (Homo sapiens, UniProt P41240)
T13 construct: purchased MRC Dundee, Premier Screen (contract screening service)
From the text: as §1, §2, §3

MKK1 = MKK1 (Homo sapiens, UniProt Q02750)
From the text: as §1, §2, §3

IRR = molecular target: T14, IRR (Homo sapiens, UniProt P14616)
T14 construct: purchased MRC in Dundee (Premier Screen service)
From the text: as §1, §2, §3

MLK1 = molecular target: T15, MLK1 (Homo sapiens, UniProt P80192)
T15 construct: MRC Dundee (screening service)
From the text: as §1, §2, §3

p38a MAPK = molecular target: T16, p38a MAPK (Homo sapiens, UniProt Q16539)
T16 construct: purchased MRC in Dundee (Premier Screen service)
From the text: as §1, §2, §3

MARK3 = molecular target: T17, MARK3 (Homo sapiens, UniProt P27448)
T17 construct: MRC Dundee (screening service)
From the text: as §1, §2, §3

NEK2a = molecular target: T18, NEK2a (Homo sapiens, UniProt P51955)
T18 construct: purchased MRC in Dundee (Premier Screen service)
From the text: as §1, §2, §3

TrkA = molecular target: T19, TrkA (Homo sapiens, UniProt P04629)
T19 construct: purchased MRC in Dundee (Premier Screen service)
From the text: as §1, §2, §3

DYRK3 = molecular target: T20, DYRK3 (Homo sapiens, UniProt O43781)
T20 construct: purchased MRC in Dundee (Premier Screen service)
From the text: as §1, §2, §3

CK1γ2 = molecular target: T21, CK1γ2 (Homo sapiens, UniProt P78368)
T21 construct: purchased MRC Dundee, Premier Screen (contract screening service)
From the text: as §1, §2, §3

PAK4 = molecular target: T22, PAK4 (Homo sapiens, UniProt O96013)
T22 construct: purchased MRC in Dundee (Premier Screen service)
From the text: as §1, §2, §3

SGK1 = molecular target: T23, SGK1 (Homo sapiens, UniProt O00141, S422D)
T23 construct: purchased MRC Dundee, Premier Screen (contract screening service)
From the text: as §1, §2, §3

CK1δ = molecular target: T24, CK1δ (Homo sapiens, UniProt P48730)
T24 construct: purchased MRC Dundee, Premier Screen (contract screening service)
From the text: as §1, §2, §3

DYRK2 = molecular target: T25, DYRK2 (Homo sapiens, UniProt Q92630)
T25 construct: purchased MRC in Dundee (Premier Screen service)
From the text: as §1, §2, §3

JAK3 = JAK3 (Homo sapiens, UniProt P52333)
From the text: as §1, §2, §3

IRAK1 = IRAK1 (Homo sapiens, UniProt P51617)
From the text: as §1, §2, §3

CAMKKb = molecular target: T26, CAMKKb (Homo sapiens, UniProt Q96RR4)
T26 construct: MRC in Dundee (screening service)
From the text: as §1, §2, §3

MINK1 = molecular target: T27, MINK1 (Homo sapiens, UniProt Q8N4C8)
T27 construct: purchased MRC in Dundee (Premier Screen service)
From the text: as §1, §2, §3

Lck = molecular target: T28, Lck (Homo sapiens, UniProt P06239)
T28 construct: purchased MRC Dundee, Premier Screen (contract screening service)
From the text: as §1, §2, §3

MKK2 = molecular target: T29, MKK2 (Homo sapiens, UniProt P36507)
T29 construct: MRC in Dundee (screening service)
From the text: as §1, §2, §3

EPH-B3 = EPH-B3 (Homo sapiens, UniProt P54753)
From the text: as §1, §2, §3

TTBK2 = molecular target: T30, TTBK2 (Homo sapiens, UniProt Q6IQ55)
T30 construct: purchased MRC Dundee, Premier Screen (contract screening service)
From the text: as §1, §2, §3

T10 sequence (P53779 whole entry, species assumed): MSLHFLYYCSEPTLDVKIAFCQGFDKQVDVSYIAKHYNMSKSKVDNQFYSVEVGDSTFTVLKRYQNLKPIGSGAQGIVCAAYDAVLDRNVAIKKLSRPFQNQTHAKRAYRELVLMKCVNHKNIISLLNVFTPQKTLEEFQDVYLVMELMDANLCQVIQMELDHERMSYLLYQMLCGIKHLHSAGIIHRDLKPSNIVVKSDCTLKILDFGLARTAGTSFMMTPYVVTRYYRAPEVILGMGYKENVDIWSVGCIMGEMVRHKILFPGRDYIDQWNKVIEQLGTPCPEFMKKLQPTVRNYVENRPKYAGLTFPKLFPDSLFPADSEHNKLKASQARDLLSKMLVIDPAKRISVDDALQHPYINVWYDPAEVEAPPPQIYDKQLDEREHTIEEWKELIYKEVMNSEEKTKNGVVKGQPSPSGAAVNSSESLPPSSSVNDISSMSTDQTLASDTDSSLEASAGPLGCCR
Chain of IRAK1 (P51617 whole entry, species assumed): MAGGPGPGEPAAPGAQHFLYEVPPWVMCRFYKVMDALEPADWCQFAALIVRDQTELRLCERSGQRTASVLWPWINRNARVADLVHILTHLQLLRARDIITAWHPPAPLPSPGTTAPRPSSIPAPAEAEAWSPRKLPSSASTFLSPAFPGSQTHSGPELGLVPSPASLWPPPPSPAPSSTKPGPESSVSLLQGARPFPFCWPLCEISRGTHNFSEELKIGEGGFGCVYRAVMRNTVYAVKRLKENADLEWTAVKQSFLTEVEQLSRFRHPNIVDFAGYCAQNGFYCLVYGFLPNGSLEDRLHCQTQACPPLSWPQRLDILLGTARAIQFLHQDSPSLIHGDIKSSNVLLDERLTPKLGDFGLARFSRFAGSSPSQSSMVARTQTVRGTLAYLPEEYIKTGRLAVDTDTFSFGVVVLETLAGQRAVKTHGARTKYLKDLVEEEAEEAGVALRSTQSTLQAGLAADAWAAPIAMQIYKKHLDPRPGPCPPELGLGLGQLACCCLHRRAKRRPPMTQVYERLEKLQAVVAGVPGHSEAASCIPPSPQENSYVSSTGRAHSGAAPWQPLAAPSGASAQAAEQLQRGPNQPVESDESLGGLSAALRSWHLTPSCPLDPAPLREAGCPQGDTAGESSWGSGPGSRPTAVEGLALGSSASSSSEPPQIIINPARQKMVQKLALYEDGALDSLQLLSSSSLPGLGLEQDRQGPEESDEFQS
Chain of IRAK4 (Q9NWZ3 whole entry, species assumed): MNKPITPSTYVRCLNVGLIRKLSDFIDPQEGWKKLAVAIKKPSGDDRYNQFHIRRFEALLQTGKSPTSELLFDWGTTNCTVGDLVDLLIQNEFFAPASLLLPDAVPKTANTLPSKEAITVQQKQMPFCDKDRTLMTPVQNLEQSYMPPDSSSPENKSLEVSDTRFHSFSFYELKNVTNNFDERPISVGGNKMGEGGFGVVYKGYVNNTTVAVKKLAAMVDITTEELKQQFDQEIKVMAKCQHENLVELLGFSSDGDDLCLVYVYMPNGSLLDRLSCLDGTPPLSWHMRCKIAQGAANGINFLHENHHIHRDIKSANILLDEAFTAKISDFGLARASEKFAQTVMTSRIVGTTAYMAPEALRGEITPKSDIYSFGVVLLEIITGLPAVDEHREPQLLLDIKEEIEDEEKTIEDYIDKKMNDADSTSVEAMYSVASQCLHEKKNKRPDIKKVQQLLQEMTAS
T20 sequence (O43781 whole entry, species assumed): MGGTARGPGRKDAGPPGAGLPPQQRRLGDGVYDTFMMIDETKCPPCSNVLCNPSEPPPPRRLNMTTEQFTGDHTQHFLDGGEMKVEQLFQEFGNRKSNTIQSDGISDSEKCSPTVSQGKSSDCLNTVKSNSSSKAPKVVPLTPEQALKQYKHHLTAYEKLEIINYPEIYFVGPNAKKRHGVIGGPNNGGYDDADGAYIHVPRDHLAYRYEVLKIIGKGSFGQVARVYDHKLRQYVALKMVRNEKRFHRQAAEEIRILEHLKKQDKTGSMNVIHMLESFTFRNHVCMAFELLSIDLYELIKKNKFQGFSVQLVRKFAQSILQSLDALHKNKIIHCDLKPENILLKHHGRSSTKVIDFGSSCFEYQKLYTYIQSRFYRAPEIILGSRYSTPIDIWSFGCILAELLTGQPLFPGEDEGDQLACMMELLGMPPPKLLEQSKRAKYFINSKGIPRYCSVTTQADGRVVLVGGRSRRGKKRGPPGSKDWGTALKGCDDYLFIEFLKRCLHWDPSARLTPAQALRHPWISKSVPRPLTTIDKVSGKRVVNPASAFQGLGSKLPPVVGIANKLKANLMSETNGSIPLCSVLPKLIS
Chain of MKK1 (Q02750 whole entry, species assumed): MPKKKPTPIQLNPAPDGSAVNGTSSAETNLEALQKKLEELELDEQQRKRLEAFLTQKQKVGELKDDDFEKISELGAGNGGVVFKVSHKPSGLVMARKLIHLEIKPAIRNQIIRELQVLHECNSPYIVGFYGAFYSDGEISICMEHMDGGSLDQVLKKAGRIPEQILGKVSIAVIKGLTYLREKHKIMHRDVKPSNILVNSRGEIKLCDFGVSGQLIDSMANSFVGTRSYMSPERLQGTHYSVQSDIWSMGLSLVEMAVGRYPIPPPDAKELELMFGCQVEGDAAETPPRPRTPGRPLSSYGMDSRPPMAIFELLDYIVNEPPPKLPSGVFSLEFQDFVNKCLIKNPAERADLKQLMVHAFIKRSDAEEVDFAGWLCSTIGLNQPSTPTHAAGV
T3 sequence (Q02763 23-1124, species assumed): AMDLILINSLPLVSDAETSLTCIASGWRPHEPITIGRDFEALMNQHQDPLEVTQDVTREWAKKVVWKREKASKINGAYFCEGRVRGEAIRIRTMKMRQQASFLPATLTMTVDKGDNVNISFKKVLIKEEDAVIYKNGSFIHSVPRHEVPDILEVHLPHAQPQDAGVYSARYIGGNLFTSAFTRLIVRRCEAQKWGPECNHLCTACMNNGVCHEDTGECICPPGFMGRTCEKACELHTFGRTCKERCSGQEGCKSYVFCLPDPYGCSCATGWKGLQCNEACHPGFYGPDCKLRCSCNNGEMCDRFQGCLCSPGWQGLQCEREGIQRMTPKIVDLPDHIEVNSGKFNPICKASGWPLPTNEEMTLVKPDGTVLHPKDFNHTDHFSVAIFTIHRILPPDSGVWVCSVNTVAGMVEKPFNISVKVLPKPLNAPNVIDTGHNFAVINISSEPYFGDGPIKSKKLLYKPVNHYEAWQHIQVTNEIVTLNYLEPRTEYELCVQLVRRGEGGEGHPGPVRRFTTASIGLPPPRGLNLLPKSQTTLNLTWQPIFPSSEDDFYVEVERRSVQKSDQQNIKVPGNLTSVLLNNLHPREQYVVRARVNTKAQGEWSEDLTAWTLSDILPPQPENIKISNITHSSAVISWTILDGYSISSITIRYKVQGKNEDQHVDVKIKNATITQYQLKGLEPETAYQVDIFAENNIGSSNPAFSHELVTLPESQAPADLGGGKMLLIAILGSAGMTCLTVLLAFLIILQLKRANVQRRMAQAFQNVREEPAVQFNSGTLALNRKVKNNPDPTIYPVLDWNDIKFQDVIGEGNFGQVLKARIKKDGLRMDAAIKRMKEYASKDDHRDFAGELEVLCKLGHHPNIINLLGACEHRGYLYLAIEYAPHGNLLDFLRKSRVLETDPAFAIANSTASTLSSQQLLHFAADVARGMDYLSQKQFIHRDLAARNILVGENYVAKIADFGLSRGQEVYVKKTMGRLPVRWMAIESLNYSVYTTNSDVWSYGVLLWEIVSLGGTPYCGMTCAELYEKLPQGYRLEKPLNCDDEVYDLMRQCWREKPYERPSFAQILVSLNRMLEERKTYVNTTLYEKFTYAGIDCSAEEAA
T22 sequence (O96013 whole entry, species assumed): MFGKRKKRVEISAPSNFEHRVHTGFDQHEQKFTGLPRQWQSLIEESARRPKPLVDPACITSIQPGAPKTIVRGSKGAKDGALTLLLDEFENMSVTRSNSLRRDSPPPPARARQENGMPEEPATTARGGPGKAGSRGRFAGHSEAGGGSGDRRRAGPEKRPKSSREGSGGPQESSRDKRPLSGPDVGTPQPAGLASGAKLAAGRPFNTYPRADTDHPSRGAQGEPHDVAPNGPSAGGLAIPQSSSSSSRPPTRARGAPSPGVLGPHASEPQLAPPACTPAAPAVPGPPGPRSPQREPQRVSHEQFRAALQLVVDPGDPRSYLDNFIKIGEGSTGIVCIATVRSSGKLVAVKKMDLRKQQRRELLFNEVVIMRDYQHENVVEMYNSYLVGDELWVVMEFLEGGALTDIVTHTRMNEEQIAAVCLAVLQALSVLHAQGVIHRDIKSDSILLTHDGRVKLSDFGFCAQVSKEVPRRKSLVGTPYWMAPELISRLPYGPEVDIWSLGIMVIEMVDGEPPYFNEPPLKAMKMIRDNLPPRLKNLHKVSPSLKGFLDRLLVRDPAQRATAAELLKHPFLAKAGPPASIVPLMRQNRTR
T23 sequence (O00141 60-431 S422D limits assumed, species assumed): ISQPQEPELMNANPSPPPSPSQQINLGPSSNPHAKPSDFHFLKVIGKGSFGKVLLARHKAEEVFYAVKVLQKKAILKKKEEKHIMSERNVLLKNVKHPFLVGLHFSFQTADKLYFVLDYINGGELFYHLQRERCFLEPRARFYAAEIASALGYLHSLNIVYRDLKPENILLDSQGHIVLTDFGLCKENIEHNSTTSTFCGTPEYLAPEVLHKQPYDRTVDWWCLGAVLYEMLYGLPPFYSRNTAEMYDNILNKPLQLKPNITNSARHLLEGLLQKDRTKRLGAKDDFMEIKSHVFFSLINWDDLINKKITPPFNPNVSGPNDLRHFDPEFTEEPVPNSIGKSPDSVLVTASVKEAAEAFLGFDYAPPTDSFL
T7 sequence (Q9HC98 whole entry, species assumed): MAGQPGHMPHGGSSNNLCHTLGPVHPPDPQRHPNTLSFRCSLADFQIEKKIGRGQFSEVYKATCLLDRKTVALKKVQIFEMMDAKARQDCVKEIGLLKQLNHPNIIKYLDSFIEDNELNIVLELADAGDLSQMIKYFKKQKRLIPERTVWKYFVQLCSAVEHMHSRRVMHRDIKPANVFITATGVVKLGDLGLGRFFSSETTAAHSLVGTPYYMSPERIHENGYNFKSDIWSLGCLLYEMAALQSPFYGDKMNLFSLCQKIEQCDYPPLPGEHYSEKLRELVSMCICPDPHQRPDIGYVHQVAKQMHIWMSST

Compound: O=C(Nc1cc(C(F)(F)F)cc(C(F)(F)F)c1)Nc1ccc(Br)cc1-c1nnn[nH]1 [SCO-101]
- remaining activity at 10 µM (WNK1): 105%
- remaining activity at 10 µM (EPH-B1): 124%
- remaining activity at 10 µM (TIE2): 95%
- remaining activity at 10 µM (VEG-FR): 66%
- remaining activity at 10 µM (TGFBR1): 111%
- remaining activity at 10 µM (RSK2): 64%
- remaining activity at 10 µM (NEK6): 90%
- remaining activity at 10 µM (IRAK4): 112%
- remaining activity at 10 µM (ERK8): 93%
- remaining activity at 10 µM (MNK2): 104%
- remaining activity at 10 µM (JNK3): 112%
- remaining activity at 10 µM (GCK): 92%
- remaining activity at 10 µM (MEKK1): 105%
- remaining activity at 10 µM (MPSK1): 115%
- remaining activity at 10 µM (CSK): 106%
- remaining activity at 10 µM (MKK1): 118%
- remaining activity at 10 µM (IRR): 131%
- remaining activity at 10 µM (MLK1): 98%
- remaining activity at 10 µM (p38a MAPK): 63%
- remaining activity at 10 µM (MARK3): 99%
- remaining activity at 10 µM (NEK2a): 134%
- remaining activity at 10 µM (TrkA): 25%
- remaining activity at 10 µM (DYRK3): 59%
- remaining activity at 10 µM (CK1γ2): 109%
- remaining activity at 10 µM (PAK4): 38%
- remaining activity at 10 µM (SGK1): 103%
- remaining activity at 10 µM (CK1δ): 107%
- remaining activity at 10 µM (DYRK2): 78%
- remaining activity at 10 µM (JAK3): 121%
- remaining activity at 10 µM (IRAK1): 115%
- remaining activity at 10 µM (CAMKKb): 94%
- remaining activity at 10 µM (MINK1): 173%
- remaining activity at 10 µM (Lck): 103%
- remaining activity at 10 µM (MKK2): 94%
- remaining activity at 10 µM (EPH-B3): 114%
- remaining activity at 10 µM (TTBK2): 109%
